{
  "source": "patent US20130324413A1",
  "about": "“METHOD FOR PROMOTING PLANT GROWTH” (SUMITOMO CHEMICAL COMPANY, LIMITED, priority 2011, published 2013)",
  "type_in_all_cases": "in vivo",
  "key": {"[1]": {"system": "corn seeds (cultivar: Kuromochi)", "experiment": "Test Example 1: corn seed coating, fresh weight of above-ground part after 18 days", "conditions": "for Average fresh weight of above-ground part: seed coating, grown 18 days at 27° C., non-treated 4.2 g", "protocol": "A blank slurry solution containing 5% (V/V) color coat red (Becker Underwood, Inc.), 5% (V/V) CF-Clear (Becker Underwood, Inc.) and 0.4% Maxim XL (Syngenta) was prepared. […] In a 50-ml centrifuge tube (manufactured by BD Japan), 0.48 ml of the slurry solution was placed for each 20 g of corn seeds (cultivar: Kuromochi) and stirred until the solution was dried, thereby coating the seeds. As a control, seeds were coated with the blank slurry solution and used as seeds for a non-treated group. Two treated corn seeds were sown in the culture soil (AISAI) in each plastic pot (55 mm in diameter×58 mm in height) and grown for 18 days under the following conditions: temperature, 27° C.; illuminance, about 5,000 lux; day length, 16 hours. The fresh weight of the above-ground part of the plants was measured. The experiment was performed in four replications for each treatment condition and the average weight per individual was calculated."}, "[2]": {"system": "corn plants (cultivar: Koshu)", "experiment": "Test Example 3: corn seed soaking, fresh weight of above-ground part", "protocol": "Each of the 1,000-fold concentrated dimethylsulfoxide (DMSO) solutions of compound (1b) was 1,000-fold diluted with water to prepare a soultion of compound (1b) at the test concentration. The solution was dispensed in 30 ml aliquots into […] Petri dishes, in which seeds of corn plants (cultivar: Koshu) were soaked and incubated for 16 hours at 24° C. in the dark. The corn seeds (cultivar: Koshu) were sown in the culture soil (AISAI) in the plastic pots (55 mm in diameter×58 mm in height), and corn seedlings were grown for 18 days under the following, conditions: temperature, 27° C.; illuminance, about 5,000 lux; day length, 16 hours. As a control, a 0.1% aqueous DMSO solution was prepared, and seeds were soaked in this solution and then sown and grown into seedlings in the same way as described above. This group was used as the non-treated group. The fresh weight of the above-ground part of the corn seedlings obtained above was measured. The experiment was performed in four replications for each individual plant at each treatment concentration and the average weight per individual was calculated."}, "[3]": {"system": "Corn (cultivar: PIONEER 31N27)", "experiment": "Test Example 8: corn seedling spraying, low-temperature stress, fresh weight of above-ground part", "conditions": "for Average fresh weight of above-ground part: low-temperature stress 2±2° C. 5 days, non-treated 0.79 g", "protocol": "Corn seeds (cultivar: PIONEER 31N27) were sown in the culture soil (AISAI) in plastic pots (55 mm in diameter×58 mm in height) and grown for a week under the following conditions to obtain corn seedlings: temperature, 20 to 25° C.; humidity, 50 to 75%; illuminance, about 5,000 lux; day length, 16 hours.\nA flowable formulation of the compound (1b) was obtained by adding 120 mg of a mixture of white carbon and a polyoxyethylene alkyl ether sulfate ammonium salt (weight ratio of 1:1) and 300 μl of water to 0.5 mg of compound (1b), followed by fine grinding by a wet grinding method. This flowable formulation was diluted with 50 ml of water, to which RINO (manufactured by NIHON NOHYAKU) was added as a sticker to 5,000-fold dilution, whereby a spray solution was obtained. A sufficient amount of the spray solution was applied to the corn seedlings by using an automatic spraying machine. As a control, a flowable formulation without compound (1b) was prepared and then sprayed to the non-treated group.\nSubsequently, the corn seedlings treated with the spray solution were placed in a phytotron under the following conditions in order to expose the plants to low-temperature stress for 5 days. • Conditions: “temperature, 2±2° C.; lighting hour, 16 hours; • illuminance, about 5,000 lux; humidity, 35 to 80%”\nThe plants were then grown for another 4 days under the following conditions: temperature, 25 to 28° C.; humidity, 50 to 75%, illuminance, about 5,000 lux; day length, 16 hours. Then the fresh weight of the above-ground part of the plants was measured. The experiment was performed in four replications for each treatment condition and the average weight per individual was calculated."}, "[4]": {"system": "Arabidopsis thaliana (ecotype Columbia)", "experiment": "Test Example 7: Arabidopsis seedlings in medium, high-temperature stress, leaf area", "conditions": "30 ppm in medium; high-temperature stress 45° C. 60 minutes; 8 days after; non-treated 3.4 mm^2", "protocol": "In a Petri dish, a hydroponic sponge piece (1 cm×1 cm×0.2 cm) was immersed with a half concentration of Murashige-and-Skoog medium (MS culture medium: containing 2.5 mM MES, 1% sucrose and 0.1% Gamborg vitamin solution G1019 (Sigma-Aldrich)). On this sponge piece, 4 to 5 seeds of Arabidopsis thaliana (ecotype Columbia) were aseptically sown. After the low temperature treatment (at 4° C. for 2 to 4 days), the plants were grown for 6 days under the following conditions to obtain Arabidopsis seedlings: temperature, 23° C.; humidity, 45%; illuminance, 3,500 lux; day length, 16 hours. Each 0.5 ml of a half concentration of MS medium was dispensed into a 24-well plate (SUMILON MS-80240; manufactured by Sumitomo Bakelite), onto which […] of a 1,000-fold concentrated DMSO solution of compound (1b) was added to prepare medium containing compound (1b) at a concentration of 30 ppm. After thinning the Arabidopsis seedlings to 2 plants per sponge, the seedlings were transplanted in the compound (1b)-containing medium in each well of the 24-well plate, together with the sponge piece and then grown overnight. […] Each well was photographed with a digital camera and the green area in the photograph was measured using image analysis software Win ROOF (manufactured by MITANI CORPORATION), thereby quantifying the leaf areas of the plants."}},
  "data": [
    {"smiles": "CNC(=O)C(OC)c1ccccc1COc1cc(C)ccc1C", "note": "(racemic) [Compound (1b), N-methyl-2-[2-(2,5-dimethylphenoxy)methyl]phenyl-2-methoxyacetamide]", "values": [
      {"measurement": "Relative value (fresh weight of above-ground part)", "setting": "[1]; 12.5 g/ of seeds, non-treated = 100", "value": 105, "unit": "%"},
      {"measurement": "fresh weight of the above-ground part as compared with the control group", "setting": "[1]; amount ranging from 10 g to 50 g per 100 kg of seeds", "value": "increased"},
      {"measurement": "Average fresh weight of above-ground part", "setting": "[1]; amount of compound 10 g/ of seeds", "value": 4.4, "unit": "g"},
      {"measurement": "Average fresh weight of above-ground part", "setting": "[1]; amount of compound 12.5 g/ of seeds", "value": 4.4, "unit": "g"},
      {"measurement": "Average fresh weight of above-ground part", "setting": "[1]; amount of compound 25 g/ of seeds", "value": 5.0, "unit": "g"},
      {"measurement": "Average fresh weight of above-ground part", "setting": "[1]; amount of compound 50 g/ of seeds", "value": 4.5, "unit": "g"},
      {"measurement": "fresh weight of the above-ground part as compared with the non-treated group", "setting": "[2]; concentration of 3 ppm", "value": "increased"},
      {"measurement": "Average fresh weight of above-ground part", "setting": "[2]; seed soaking 3 ppm, 16 hours, grown 18 days, non-treated 4.47 g", "value": 6.60, "unit": "g"},
      {"measurement": "fresh weight of the above-ground part as compared with the non-treated group", "setting": "[3]; plants exposed to low-temperature stress, concentration range of 10 ppm to 100 ppm", "value": "increased"},
      {"measurement": "Average fresh weight of above-ground part", "setting": "[3]; spray 10 ppm", "value": 0.89, "unit": "g"},
      {"measurement": "Average fresh weight of above-ground part", "setting": "[3]; spray 30 ppm", "value": 0.94, "unit": "g"},
      {"measurement": "Average fresh weight of above-ground part", "setting": "[3]; spray 100 ppm", "value": 0.90, "unit": "g"},
      {"measurement": "Mean leaf area of plants", "setting": "[4]", "value": 12.6, "unit": "mm^2"}
    ]}
  ]
}
